In patent publication US20230278972A1, “SUBSTITUTED HALOALKYL SULFONANILIDE HERBICIDES” (FMC Corporation, priority 2020, published 2023):

Assays:
Type in all cases: in vivo
[1] = tested on: blackgrass (Alopecurus myosuroides); test: Test A postemergence, blackgrass; details: Postemergence
In short: (§1)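 Compounds in non-phytotoxic solvent with surfactant. Soil: loam/sand. Preemergence via directed soil spray after seeding; postemergence on seedlings 2–10 cm, one- to two-leaf.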

[2] = tested on: pigweed (Amaranthus retroflexus); test: Test A postemergence, pigweed; details: Postemergence
In short: as §1

[3] = tested on: ragweed (common ragweed, Ambrosia artemisiifolia); test: Test A preemergence, ragweed; details: Preemergence; for Plant response rating, Ragweed: 0 to 100 scale (0 no effect, 100 complete control); for Ragweed plant response rating: visual injury on 0 to 100 scale (0 no effect, 100 complete control), approximately 10 days
In short: as §1

[4] = tested on: wheat (Triticum aestivum); test: Test A postemergence, wheat; details: Postemergence
In short: (§2)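 Test chemicals, formulated in a non-phytotoxic solvent mixture with surfactant, were sprayed postemergence on plants 2 to 10 cm tall at the one- to two-leaf stage. Preemergence treatment was a directed soil spray onto freshly seeded pots. Both used a loam soil and sand blend.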

[5] = tested on: Foxtail, Giant (giant foxtail, Setaria faberi); test: Test A preemergence, Foxtail, Giant; details: Preemergence; for Plant response rating, Foxtail, Giant: 0 to 100 scale (0 no effect, 100 complete control); for Foxtail, Giant plant response rating: visual injury on 0 to 100 scale (0 no effect, 100 complete control), approximately 10 days
In short: as §1

[6] = tested on: ragweed (common ragweed, Ambrosia artemisiifolia); test: Test A postemergence, ragweed; details: Postemergence
In short: as §1

[7] = tested on: Ryegrass, Italian (Italian ryegrass, Lolium multiflorum); test: Test A postemergence, Ryegrass, Italian; details: Postemergence
In short: as §1

[8] = tested on: Foxtail, Giant (giant foxtail, Setaria faberi); test: Test A postemergence, Foxtail, Giant; details: Postemergence
In short: as §1

[9] = tested on: galium (catchweed bedstraw, Galium aparine); test: Test A postemergence, galium; details: Postemergence
In short: as §2

[10] = tested on: barnyardgrass (Echinochloa crus-galli); test: Test A postemergence, barnyardgrass; details: Postemergence
In short: as §2

[11] = tested on: kochia (Bassia scoparia); test: Test A postemergence, kochia; details: Postemergence
In short: as §1

[12] = tested on: Ryegrass, Italian (Italian ryegrass, Lolium multiflorum); test: Test A preemergence, Ryegrass, Italian; details: Preemergence; for Plant response rating, Ryegrass, Italian: 0 to 100 scale (0 no effect, 100 complete control); for Ryegrass, Italian plant response rating: visual injury on 0 to 100 scale (0 no effect, 100 complete control), approximately 10 days
In short: as §1

[13] = tested on: barnyardgrass (Echinochloa crus-galli); test: Test A preemergence, barnyardgrass; details: Preemergence; for Plant response rating, Barnyardgrass: 0 to 100 scale (0 no effect, 100 complete control); for Barnyardgrass plant response rating: visual injury on 0 to 100 scale (0 no effect, 100 complete control), approximately 10 days
In short: as §1

[14] = tested on: pigweed (Amaranthus retroflexus); test: Test A preemergence, pigweed; details: for Plant response rating, Pigweed: 0 to 100 scale (0 no effect, 100 complete control); for Pigweed plant response rating: visual injury on 0 to 100 scale (0 no effect, 100 complete control), approximately 10 days
In short: as §2

[15] = tested on: corn (Zea mays); test: Test A postemergence, corn; details: Postemergence
In short: as §1

[16] = tested on: kochia (Bassia scoparia); test: Test A preemergence, kochia; details: Preemergence; for Plant response rating, Kochia: 0 to 100 scale (0 no effect, 100 complete control); for Kochia plant response rating: visual injury on 0 to 100 scale (0 no effect, 100 complete control), approximately 10 days
In short: as §1

[17] = 31 g ai/ha, visual injury on 0 to 100 scale (0 no effect, 100 complete control), approx. 10 days
[18] = 125 g ai/ha, 0 to 100 scale (0 no effect, 100 complete control)
[19] = 31 g ai/ha, visual injury, approx. 10 days
[20] = 1000 g ai/ha, visual injury, 0 to 100 scale (0 no effect, 100 complete control), approx. 10 days
[21] = 500 g ai/ha, visual injury approx. 10 days, 0 to 100 scale (0 no effect, 100 complete control)
[22] = 125 g ai/ha, visual injury, approx. 10 days

## Cc1c(C(=O)N2CCOCC2)cc(N(S(=O)(=O)C(F)(F)F)S(=O)(=O)C(F)(F)F)c(C)c1F [Compound 174]
[1]; [17]
  Plant response rating, Blackgrass: 0
[1]; [18]
  Plant response rating, Blackgrass: 0
[2]; [17]
  Plant response rating, Pigweed: 70
[2]; [18]
  Plant response rating, Pigweed: 90
[3]; [19]
  Plant response rating, Ragweed: 30
[3]; 125 g ai/ha
  Ragweed plant response rating: 90
[4]; [17]
  Plant response rating, Wheat: 0
[4]; [18]
  Plant response rating, Wheat: 0
[5]; [19]
  Plant response rating, Foxtail, Giant: 30
[5]; 125 g ai/ha
  Foxtail, Giant plant response rating: 90
[6]; [17]
  Plant response rating, Ragweed: 70
[6]; [18]
  Plant response rating, Ragweed: 90
[7]; [17]
  Plant response rating, Ryegrass, Italian: 0
[7]; [18]
  Plant response rating, Ryegrass, Italian: 0
[8]; [17]
  Plant response rating, Foxtail, Giant: 0
[8]; [18]
  Plant response rating, Foxtail, Giant: 0
[9]; [17]
  Plant response rating, Galium: 50
[9]; [18]
  Plant response rating, Galium: 80
[10]; [17]
  Plant response rating, Barnyardgrass: 0
[10]; [18]
  Plant response rating, Barnyardgrass: 60
[11]; [17]
  Plant response rating, Kochia: 10
[11]; [18]
  Plant response rating, Kochia: 30
[12]; [19]
  Plant response rating, Ryegrass, Italian: 40
[12]; 125 g ai/ha
  Ryegrass, Italian plant response rating: 60
[13]; [19]
  Plant response rating, Barnyardgrass: 10
[13]; 125 g ai/ha
  Barnyardgrass plant response rating: 80
[14]; [19]
  Plant response rating, Pigweed: 90
[14]; 125 g ai/ha
  Pigweed plant response rating: 100
[15]; [17]
  Plant response rating, Corn: 0
[15]; [18]
  Plant response rating, Corn: 20
[16]; [19]
  Plant response rating, Kochia: 40
[16]; 125 g ai/ha
  Kochia plant response rating: 80

## Cc1cc(C)c(C(=O)N2CCN(C)CC2)cc1NS(=O)(=O)C(F)(F)F [Compound 10]
[1]; [20]
  Plant response rating, Blackgrass: 0
[2]; [20]
  Plant response rating, Pigweed: 80
[3]; 1000 g ai/ha
  Plant response rating, Ragweed: 90
[4]; [20]
  Plant response rating, Wheat: 0
[5]; 1000 g ai/ha
  Plant response rating, Foxtail, Giant: 80
[6]; [20]
  Plant response rating, Ragweed: 80
[7]; [20]
  Plant response rating, Ryegrass, Italian: 60
[8]; [20]
  Plant response rating, Foxtail, Giant: 20
[9]; [20]
  Plant response rating, Galium: 80
[10]; [20]
  Plant response rating, Barnyardgrass: 10
[11]; [20]
  Plant response rating, Kochia: 40
[12]; 1000 g ai/ha
  Plant response rating, Ryegrass, Italian: 90
[13]; 1000 g ai/ha
  Plant response rating, Barnyardgrass: 40
[14]; 1000 g ai/ha
  Plant response rating, Pigweed: 100
[15]; [20]
  Plant response rating, Corn: 10
[16]; 1000 g ai/ha
  Plant response rating, Kochia: 60

## Cc1cc(Cl)c(C(=O)N(C)C)cc1NS(=O)(=O)C(F)(F)F [Compound 251]
[1]; [18]
  Plant response rating, Blackgrass: 20
[1]; [21]
  Plant response rating, Blackgrass: 60
[2]; [18]
  Plant response rating, Pigweed: 80
[2]; [21]
  Plant response rating, Pigweed: 80
[3]; [22]
  Plant response rating, Ragweed: 80
[3]; 500 g ai/ha
  Ragweed plant response rating: 80
[4]; [18]
  Plant response rating, Wheat: 40
[4]; [21]
  Plant response rating, Wheat: 70
[5]; [22]
  Plant response rating, Foxtail, Giant: 50
[5]; 500 g ai/ha
  Foxtail, Giant plant response rating: 90
[6]; [18]
  Plant response rating, Ragweed: 70
[6]; [21]
  Plant response rating, Ragweed: 80
[7]; [18]
  Plant response rating, Ryegrass, Italian: 30
[7]; [21]
  Plant response rating, Ryegrass, Italian: 80
[8]; [18]
  Plant response rating, Foxtail, Giant: 10
[8]; [21]
  Plant response rating, Foxtail, Giant: 80
[9]; [18]
  Plant response rating, Galium: 80
[9]; [21]
  Plant response rating, Galium: 80
[10]; [18]
  Plant response rating, Barnyardgrass: 70
[10]; [21]
  Plant response rating, Barnyardgrass: 70
[11]; [18]
  Plant response rating, Kochia: 40
[11]; [21]
  Plant response rating, Kochia: 60
[12]; [22]
  Plant response rating, Ryegrass, Italian: 90
[12]; 500 g ai/ha
  Ryegrass, Italian plant response rating: 100
[13]; [22]
  Plant response rating, Barnyardgrass: 20
[13]; 500 g ai/ha
  Barnyardgrass plant response rating: 90
[14]; [22]
  Plant response rating, Pigweed: 100
[14]; 500 g ai/ha
  Pigweed plant response rating: 100
[15]; [18]
  Plant response rating, Corn: 0
[15]; [21]
  Plant response rating, Corn: 30
[16]; [22]
  Plant response rating, Kochia: 90
[16]; 500 g ai/ha
  Kochia plant response rating: 90
